From patent publication US20140065697A1, “CELLS AND METHODS FOR PRODUCING ISOBUTYRIC ACID” (Regents of the University of Minnesota, priority 2011, published 2014)
Like-named read-outs stand apart in the source and are kept apart here.

Assays:
[1] = molecular target: T1, PadA (Escherichia coli, UniProt P80668); test: Measurement of PadA activity (NADH generation at 340 nm, Michaelis-Menten fit); type: biochemical, E. coli; details: for kcat: substrate isobutyraldehyde
T1 construct: […]; 6xHis (N); made in house; host or cells: E. coli BL-21 harboring pREP4; plasmid pIBA10 (pQE9)
T1 sequence (P80668 1-499): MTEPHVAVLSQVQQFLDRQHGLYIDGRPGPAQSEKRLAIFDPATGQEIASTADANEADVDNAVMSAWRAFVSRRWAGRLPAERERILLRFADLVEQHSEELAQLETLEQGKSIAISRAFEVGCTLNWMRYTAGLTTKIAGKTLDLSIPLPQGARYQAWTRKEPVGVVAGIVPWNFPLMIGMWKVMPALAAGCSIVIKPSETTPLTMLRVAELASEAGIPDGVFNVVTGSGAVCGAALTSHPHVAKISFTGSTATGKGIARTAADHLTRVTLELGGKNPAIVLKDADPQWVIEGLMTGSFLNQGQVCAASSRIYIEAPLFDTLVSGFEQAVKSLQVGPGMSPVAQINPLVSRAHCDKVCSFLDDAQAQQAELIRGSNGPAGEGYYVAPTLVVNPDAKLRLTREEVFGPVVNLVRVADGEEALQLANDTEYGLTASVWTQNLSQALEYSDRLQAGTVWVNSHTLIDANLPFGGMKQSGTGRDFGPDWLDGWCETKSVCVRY
Description: (§1) Because it produced the greatest amount of isobutyrate, we selected PadA for further study. To characterize the enzyme, PadA was tagged with an N-terminal 6×His-tag, overexpressed, and purified through a Ni-NTA column. The kinetic parameters for conversion of isobutyraldehyde by PadA were determined by measuring the reduction of NAD+ to NADH at 340 nm. PadA activity toward isobutyraldehyde is much lower than that toward its natural physiological substrate phenylacetaldehyde.
(§2) pIBA10 was transformed into BL-21 E. coli host harboring the pREP4 plasmid (Qiagen; Valencia, Calif.). An overnight pre-culture was diluted 100-fold in 300 mL 2×YT rich medium containing 50 mg/L ampicillin, 25 mg/L kanamycin and 0.1 mM IPTG. Expression of recombinant protein was performed at 30° C. overnight.
(§3) The cell pellet was sonicated in 30 mL lysis buffer (250 mM NaCl, 2 mM DTT, 5 mM imidazole and 50 mM Tris pH 8.0). The cellular debris was removed by centrifugation at 15,000 RPM for 20 minutes. The supernatant was passed through a Ni-NTA column. Then the column was washed with 10 mL wash buffer (250 mM NaCl, 20 mM imidazole and 50 mM Tris pH 8.0) four times. Finally, the target protein was eluted with 10 mL elution buffer (250 mM NaCl, 250 mM imidazole and 50 mM Tris pH 8.0). The eluate was buffer-exchanged and concentrated into storage buffer ([…] tris buffer, pH 8.0, and 20% glycerol) using AMICON ULTRA centrifugal filter (Millipore Corp.; Billerica, Mass.). Protein concentration was determined by measuring the UV absorbance at 280 nm (extinction coefficient, 75070 cm^−1 M^−1). The concentrated protein solution was aliquoted (100 μl) into PCR tubes and flash frozen at −80° C. for long term storage.
(§4) Substrate isobutyraldehyde was purchased from Fisher Scientific International, Inc. (Hampton, N.H.), and NAD^+ was from New England Biolabs, Inc., (Ipswich, Mass.). The reaction mixture contained 0.5 mM NAD^+ and 0.2-4 mM isobutyraldehyde in assay buffer (50 mM NaH2PO4, pH 8.0, 1 mM DTT) with a total volume of 80 μl. The reactions were started by adding 2 μl […] (final enzyme concentration 25 nM), and the generation of NADH was monitored at 340 nm (extinction coefficient, 6.22 mM^−1 cm^−1). Kinetic parameters (kat and Km) were determined by fitting initial velocity data to the Michaelis-Menten equation using Origin software.

[2] = molecular target: YqhD (Escherichia coli, UniProt Q46856); details: Atsumi et al., 2010; cited from earlier work
[3] = molecular target: T1, PadA; details: natural substrate phenylacetaldehyde (asterisked line); cited from earlier work
[4] = system: CC(C)C=O; test: Measurement of PadA activity (NADH generation at 340 nm, Michaelis-Menten fit); type: biochemical, E. coli; details: other: PadA, substrate isobutyraldehyde, 0.5 mM NAD+, pH 8.0, 30.0 °C
Description: as §1, §2, §3, §4

YqhD, sequence (Q46856 whole entry): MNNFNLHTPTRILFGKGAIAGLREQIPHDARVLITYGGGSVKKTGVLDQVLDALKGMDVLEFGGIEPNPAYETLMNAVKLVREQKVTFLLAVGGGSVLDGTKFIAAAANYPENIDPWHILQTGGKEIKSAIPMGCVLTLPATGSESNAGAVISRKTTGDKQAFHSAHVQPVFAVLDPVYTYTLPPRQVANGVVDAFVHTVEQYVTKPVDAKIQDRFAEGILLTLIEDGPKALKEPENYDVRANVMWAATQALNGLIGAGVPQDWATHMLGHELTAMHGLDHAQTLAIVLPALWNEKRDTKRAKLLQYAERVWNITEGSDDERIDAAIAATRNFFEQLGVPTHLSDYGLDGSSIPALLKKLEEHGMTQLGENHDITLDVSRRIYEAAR

Compound: CC(C)C=O [Isobutyraldehyde, isobutyraldehyde]
- Km value higher than toward phenylacetaldehyde [1]: 230 fold
- kcat value lower than toward phenylacetaldehyde [1]: 4 fold
- kcat [1]: 24.9 ± 0.5 s⁻¹
- kcat ([1]; listed as isobutyraldehyde): 24.9 s⁻¹
- Km [2]: 1800 µM

Compound: O=CCc1ccccc1 [Phenylacetaldehyde, phenylacetaldehyde]
- specificity constant kcat/Km higher than towards isobutyraldehyde [1]: ~1000 fold
- Km [3]: 11.6 µM
- kcat [3]: 96.83 s⁻¹

Compound: PadA (Escherichia coli K-12)
- Km [4]: 2670 µM
